Results published in PubChem BioAssay (NCI).
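Assay format: 96-well plates, 48-hour exposure. At the TGI there is no net growth.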

What was measured:
Assay in all cases: growth of human tumour cells (NCI), 48 h
[1] = tested on: 786-0 renal
[2] = tested on: SK-OV-3 ovarian
[3] = tested on: SW-620 colon
[4] = tested on: A498 renal
[5] = tested on: SK-MEL-5 melanoma
[6] = tested on: K-562 leukemia
[7] = tested on: LOX IMVI melanoma
[8] = tested on: SF-295 CNS
[9] = tested on: HOP-62 NSCLC
[10] = tested on: OVCAR-8 ovarian
[11] = tested on: NCI-H460 lung
[12] = tested on: DMS 273 small cell lung
[13] = tested on: UACC-257 melanoma
[14] = tested on: KM20L2 colon
[15] = tested on: DLD-1 colon
[16] = tested on: EKVX NSCLC
[17] = tested on: KM12 colon
[18] = tested on: NCI-H522 lung
[19] = tested on: IGROV1 ovarian
[20] = tested on: XF 498 CNS
[21] = tested on: OVCAR-3 ovarian
[22] = tested on: TK-10 renal
[23] = tested on: SK-MEL-28 melanoma
[24] = tested on: UO-31 renal
[25] = tested on: CCRF-CEM leukemia
[26] = tested on: HT29 colon
[27] = tested on: SF-268 CNS
[28] = tested on: M19-MEL melanoma
[29] = tested on: M14 melanoma
[30] = tested on: NCI-H23 lung
[31] = tested on: SN12C renal
[32] = tested on: SK-MEL-2 melanoma
[33] = tested on: SNB-78 CNS
[34] = tested on: MOLT-4 leukemia
[35] = tested on: UACC-62 melanoma
[36] = tested on: NCI-H226 lung
[37] = tested on: HCT-15 colon
[38] = tested on: HCC-2998 colon
[39] = tested on: SNB-75 CNS
[40] = tested on: A549 NSCLC
[41] = tested on: SNB-19 CNS
[42] = tested on: U251 CNS
[43] = tested on: CAKI-1 renal
[44] = tested on: RPMI-8226 leukemia
[45] = tested on: MALME-3M melanoma
[46] = tested on: COLO 205 colon
[47] = tested on: RXF 393 renal
[48] = tested on: SF-539 CNS
[49] = tested on: OVCAR-5 ovarian
[50] = tested on: HL-60(TB) leukemia
[51] = tested on: OVCAR-4 ovarian
[52] = tested on: HOP-92 NSCLC
[53] = tested on: SR leukemia
[54] = tested on: HCT-116 colon
[55] = tested on: LXFL 529 NSCLC
[56] = tested on: ACHN renal
[57] = tested on: DMS 114 small cell lung

## O=C(Nc1ccccc1Cl)c1ccc([N+](=O)[O-])cc1
[1]
  TGI: > 100 µM
[2]
  TGI: > 100 µM
[3]
  TGI: > 100 µM
[4]
  TGI: > 100 µM
[5]
  TGI: > 100 µM
[6]
  TGI: > 100 µM
[7]
  TGI: > 100 µM
[8]
  TGI: > 100 µM
[9]
  TGI: > 100 µM
[10]
  TGI: > 100 µM
[11]
  TGI: > 100 µM
[12]
  TGI: > 100 µM
[13]
  TGI: > 100 µM
[14]
  TGI: > 100 µM
[15]
  TGI: > 100 µM
[16]
  TGI: > 100 µM
[17]
  TGI: > 100 µM
[18]
  TGI: > 100 µM
[19]
  TGI: > 100 µM
[20]
  TGI: > 100 µM
[21]
  TGI: > 100 µM
[22]
  TGI: > 100 µM
[23]
  TGI: > 100 µM
[24]
  TGI: > 100 µM
[25]
  TGI: > 100 µM
[26]
  TGI: > 100 µM
[27]
  TGI: > 100 µM
[28]
  TGI: > 100 µM
[29]
  TGI: > 100 µM
[30]
  TGI: > 100 µM
[31]
  TGI: > 100 µM
[32]
  TGI: > 100 µM
[33]
  TGI: > 100 µM
[34]
  TGI: > 100 µM
[35]
  TGI: > 100 µM
[36]
  TGI: > 100 µM
[37]
  TGI: > 100 µM
[38]
  TGI: > 100 µM
[39]
  TGI: 47.5 µM
[40]
  TGI: > 100 µM
[41]
  TGI: > 100 µM
[42]
  TGI: > 100 µM
[43]
  TGI: > 100 µM
[44]
  TGI: > 100 µM
[45]
  TGI: > 100 µM
[46]
  TGI: > 100 µM
[47]
  TGI: > 100 µM
[48]
  TGI: > 100 µM

## COC(=O)C(Cc1ccc(N(C)C)cc1)(NC(=O)c1ccccc1)P(=O)(OC)OC (stereo not given)
[49]
  TGI: > 100 µM
[2]
  TGI: > 100 µM
[50]
  TGI: > 100 µM
[3]
  TGI: > 100 µM
[4]
  TGI: > 100 µM
[5]
  TGI: > 100 µM
[6]
  TGI: > 100 µM
[7]
  TGI: > 100 µM
[8]
  TGI: > 100 µM
[51]
  TGI: > 100 µM
[9]
  TGI: > 100 µM
[10]
  TGI: > 100 µM
[11]
  TGI: > 100 µM
[52]
  TGI: > 100 µM
[12]
  TGI: > 100 µM
[13]
  TGI: > 100 µM
[14]
  TGI: > 100 µM
[16]
  TGI: > 100 µM
[17]
  TGI: > 100 µM
[18]
  TGI: > 100 µM
[19]
  TGI: > 100 µM
[20]
  TGI: > 100 µM
[22]
  TGI: > 100 µM
[23]
  TGI: > 100 µM
[53]
  TGI: > 100 µM
[24]
  TGI: > 100 µM
[25]
  TGI: > 100 µM
[54]
  TGI: > 100 µM
[26]
  TGI: > 100 µM
[27]
  TGI: > 100 µM
[28]
  TGI: > 100 µM
[29]
  TGI: > 100 µM
[30]
  TGI: > 100 µM
[31]
  TGI: > 100 µM
[32]
  TGI: > 100 µM
[55]
  TGI: > 100 µM
[34]
  TGI: > 100 µM
[35]
  TGI: > 100 µM
[36]
  TGI: > 100 µM
[37]
  TGI: > 100 µM
[38]
  TGI: > 100 µM
[39]
  TGI: > 100 µM
[40]
  TGI: > 100 µM
[41]
  TGI: > 100 µM
[42]
  TGI: > 100 µM
[43]
  TGI: > 100 µM
[56]
  TGI: > 100 µM
[44]
  TGI: > 100 µM
[57]
  TGI: > 100 µM
[46]
  TGI: > 100 µM
[47]
  TGI: > 100 µM
[48]
  TGI: > 100 µM
